This is an account of results in US6410523B1, “Vitamin D derivatives substituted at the 2beta-position” (Chugai Seiyaku Kabushiki Kaisha, priority 1998, dated 2002).

Experiment [1] deals with T1, rat plasma vitamin D binding protein (Rattus norvegicus, UniProt P04276).
T1 construct: from tissue; host or cells: rat plasma
T1 sequence (P04276 17-476): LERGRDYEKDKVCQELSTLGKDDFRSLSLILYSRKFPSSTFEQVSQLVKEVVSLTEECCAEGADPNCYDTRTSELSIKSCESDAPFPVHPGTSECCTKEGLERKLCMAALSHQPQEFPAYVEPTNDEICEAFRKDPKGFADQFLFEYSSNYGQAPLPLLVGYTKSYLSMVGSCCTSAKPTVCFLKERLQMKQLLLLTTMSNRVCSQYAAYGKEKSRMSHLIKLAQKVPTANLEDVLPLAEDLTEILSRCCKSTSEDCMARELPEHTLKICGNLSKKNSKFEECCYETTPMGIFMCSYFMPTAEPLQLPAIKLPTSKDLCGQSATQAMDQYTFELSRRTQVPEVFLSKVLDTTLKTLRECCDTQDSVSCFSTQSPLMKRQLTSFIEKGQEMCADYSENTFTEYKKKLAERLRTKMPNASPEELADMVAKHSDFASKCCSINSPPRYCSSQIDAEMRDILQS
Nature of the experiment: Affinity for rat plasma vitamin D binding protein (3H-25-hydroxyvitamin D3 competition, dextran coated charcoal). To be noted: for 50% binding ability: amount of the test compound providing B/B0=0.5, 3H-25-hydroxyvitamin D3 as radioligand. On the procedure: A solution of a chick small intestine vitamin D receptor, or a solution of a rat plasma vitamin D binding protein was added, and the resulting mixture was left to stand. Then, a dextran coated charcoal solution was added, and the mixture was left to stand in ice cooling, and centrifuged. To the supernatant, a liquid scintillator was added, and the mixture was measured for radioactivity. B/B0 (B=the value of radioactivity measured upon addition of the test compound, B0=the value of radioactivity measured without addition of the test compound) was calculated to find the concentration of the test compound at which B/B0=0.5.
(§1) (50% binding ability refers to the amount of the test compound providing B/B0=0.5)

The target in experiment [2] is T2, chick small intestine vitamin D receptor (Gallus gallus, UniProt O42392).
T2 construct: A solution of a chick small intestine vitamin D receptor; from tissue; host or cells: chick small intestine
T2 sequence (O42392 1-451): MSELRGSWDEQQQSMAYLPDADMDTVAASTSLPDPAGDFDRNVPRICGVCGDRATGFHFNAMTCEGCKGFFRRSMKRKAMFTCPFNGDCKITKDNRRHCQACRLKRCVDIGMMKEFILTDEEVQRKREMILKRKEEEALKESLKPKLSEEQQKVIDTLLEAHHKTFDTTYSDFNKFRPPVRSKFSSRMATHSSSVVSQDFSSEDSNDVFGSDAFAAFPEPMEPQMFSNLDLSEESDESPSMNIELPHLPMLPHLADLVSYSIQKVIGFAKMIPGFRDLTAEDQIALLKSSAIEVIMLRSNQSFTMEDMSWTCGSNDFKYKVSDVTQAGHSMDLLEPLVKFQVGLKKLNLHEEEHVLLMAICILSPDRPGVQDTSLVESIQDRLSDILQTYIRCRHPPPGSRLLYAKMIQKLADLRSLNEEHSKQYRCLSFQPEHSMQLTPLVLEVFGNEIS
Nature of the experiment: Affinity for chick small intestine vitamin D receptor (3H-1α,25-dihydroxyvitamin D3 competition, dextran coated charcoal). Type of experiment: binding. To be noted: amount of the test compound providing B/B0=0.5; 3H-1α,25-dihydroxyvitamin D3 as radioligand. As to the method:
A solution of a chick small intestine vitamin D receptor, or a solution of a rat plasma vitamin D binding protein was added, and the resulting mixture was left to stand. Then, a dextran coated charcoal solution was added, and the mixture was left to stand in ice cooling, and centrifuged. To the supernatant, a liquid scintillator was added, and the mixture was measured for radioactivity.
as §1

On to `C=C1CC[C@H](O)C/C1=C/C=C1\CCC[C@]2(C)[C@@H]([C@H](C)CCCC(C)(C)O)CC[C@@H]12` [25-Hydroxyvitamin D3, 25-hydroxyvitamin D3], for which the Ratio in experiment [1] (affinity relative to 1,25-dihydroxyvitamin D3 = 1) was found to be 129. In experiment [1], this molecule returned a 50% binding ability of 0.209 ng.

Take `C=C1/C(=C\C=C2/CCC[C@@]3(C)C2CC[C@@H]3[C@H](C)CCCC(C)(C)O)CC(O)C(OCCC(=O)OC)C1O` (stereo partly drawn) [Compound 2, 2β-(2-methoxycarbonylethyloxy)-1α, 3β,25-trihydroxy-9,10-secocholesta-5,7,10(19)-triene]: the 50% binding ability came out at 0.455 ng in experiment [2] and 4 ng in experiment [1].
